Reference: patent US20260253225A1, “OPTICAL SYSTEM AND METHOD FOR MONITORING ABNORMALITY ASSOCIATED PARAMETERS IN CELL-CONTAINING SAMPLES” (priority 2023, published 2026)

Columns and labels:
[1] = tested on: primary lymphocytes (benign), CD8 (malignant) and Jurkat (malignant) cells; test: TIRF microscopy of cell membrane fluctuations in a model of the immune synapse; type: cell-based, human; settings: frequency ranges 0-5 Hz and 10-25 Hz, before and after Mibefradil treatment
Text: So far, intracellular fluctuations as captured by the motion of intracellular particles or by the cell boundaries were described. The fluctuations of the cell membrane may have an impact on the formation and function of the immune synapse that forms between T cells and antigen presenting cells (APCs). To study such a possible impact, the inventors measured fluctuations of Jurkat cells at their interface with coverslips coated with αCD3ε antibodies. Such coverslips often serve as a model for the immune synapse, as the cells spread on the coverslips and get robustly activated. The membrane of the cells was stained with an αCD45 primary antibody, labeled with Alexa647 and imaged by time-lapse TIRF microscopy. […] The reflection light was detected using an avalanche photodiode (APD) with a band-pass filter of 650-720 nm. […] Fluorescence intensity of each pixel in each image was normalized by dividing its intensity with the average intensity of that time-dependent image. The temporal fluctuations of the normalized fluorescence intensities were analyzed by DFT for each pixel in a ROI. […] Live cells were measured without and after ATP depletion, while fixed cells served for control. […] The temporal fluctuations of the normalized fluorescence intensities were analyzed via DFT for each pixel in that ROI. […]

[2] = tested on: surface of aggregation of cells; test: Dynamic reflective laser speckled imaging of cell surface vibrations; type: cell-based; settings: before and after mibefradil treatment, 0-5 Hz range
Text: The inventors have used the above-described imaging system 120 (the experimental set up was built by modifying an inverted fluorescence microscope set up) to acquire the sequence of tissue's images-one such image is shown in FIG. 19A. The image data analysis described above were then used to determine cell vibrations at the surface of aggregation of cells before and after the augmentation of cell membrane vibrations using mibefradil. […] FIGS. 19C and 19D show power fit parameters for the ASD analysis results in the cells (shown in FIG. 19B) before and after mibefradil treatment: parameter b (FIG. 19C) and sum of amplitudes in the 0-5 Hz range (FIG. 19D). Multiple areas of cells (N=14) were measured and compared each before and after mibefradil treatment.

live Jurkat cells = test: DIC microscopy of intracellular particles motion (ASD/PSD and MSD analysis); type: cell-based, human; settings: 10 μM blebbistatin treatment, compared with ATP depletion
Procedure: In the following experimental results of the spectral analysis of position fluctuations in time of intracellular particles in Jurkat T lymphocytes, each cell before and after ATP depletion, are presented. […] Depletion of cellular ATP was induced by 30 min incubation with 0.2 μM of the mitochondrial complex 1 inhibitor Rotenone (Sigma-Aldrich, St. Louis, MO, United States) together with 10 mM glycolysis inhibitor 2-deoxy-D-glucose (Sigma-Aldrich, St. Louis, MO, United States). For the visualization and monitoring of intracellular objects, including vesicles, Differential Interference Contrast (DIC) microscopy was employed. Reference is made to FIG. 6a where DIC image of a representative live Jurkat cell is shown. […]
After thresholding the objects, the x and y positions of each identified particle at each point of time (determined by the MultiTracker plug in) were recorded (FIGS. 6c-6e). […] Then, the DFT of these time dependent position changes were calculated for each spatial dimension. The average DFT amplitudes of all moving particles in each cell under each condition were determined for the x and y spatial dimensions. […]
From the position results of the detected intracellular particles, the MSD values for time-lags from 0.3 to 3 s (with a 0.3 s gradual increase) were calculated. The average MSD values were determined for that series of time-lags for each cell before and after ATP depletion. […]

Structure (SMILES)	cell membrane vibrations (average DFT amplitudes) [1]	mechanical vibrations of the cells' membrane [2]	effects on intracellular motion (live Jurkat cells)
COCC(=O)O[C@]1(CCN(C)CCCc2nc3ccccc3[nH]2)CCc2cc(F)ccc2[C@@H]1C(C)C [Mibefradil]	increases cell membrane vibrations in all cell types	an increase in mechanical vibrations of the cells' membrane	
Cc1ccc2c(c1)C(=O)C1(O)CCN(c3ccccc3)C1=N2 (stereo not drawn) [blebbistatin]			effects on intracellular motion of blebbistatin treatment and ATP depletion were similar
